The molecules below were run against H1047R PIK3CA enzyme (Homo sapiens, UniProt P42336, H1047R) (assay: ADP-Glo Biochemical PIK3CA Kinase Assay).
H1047R PIK3CA enzyme, sequence (P42336 whole entry H1047R): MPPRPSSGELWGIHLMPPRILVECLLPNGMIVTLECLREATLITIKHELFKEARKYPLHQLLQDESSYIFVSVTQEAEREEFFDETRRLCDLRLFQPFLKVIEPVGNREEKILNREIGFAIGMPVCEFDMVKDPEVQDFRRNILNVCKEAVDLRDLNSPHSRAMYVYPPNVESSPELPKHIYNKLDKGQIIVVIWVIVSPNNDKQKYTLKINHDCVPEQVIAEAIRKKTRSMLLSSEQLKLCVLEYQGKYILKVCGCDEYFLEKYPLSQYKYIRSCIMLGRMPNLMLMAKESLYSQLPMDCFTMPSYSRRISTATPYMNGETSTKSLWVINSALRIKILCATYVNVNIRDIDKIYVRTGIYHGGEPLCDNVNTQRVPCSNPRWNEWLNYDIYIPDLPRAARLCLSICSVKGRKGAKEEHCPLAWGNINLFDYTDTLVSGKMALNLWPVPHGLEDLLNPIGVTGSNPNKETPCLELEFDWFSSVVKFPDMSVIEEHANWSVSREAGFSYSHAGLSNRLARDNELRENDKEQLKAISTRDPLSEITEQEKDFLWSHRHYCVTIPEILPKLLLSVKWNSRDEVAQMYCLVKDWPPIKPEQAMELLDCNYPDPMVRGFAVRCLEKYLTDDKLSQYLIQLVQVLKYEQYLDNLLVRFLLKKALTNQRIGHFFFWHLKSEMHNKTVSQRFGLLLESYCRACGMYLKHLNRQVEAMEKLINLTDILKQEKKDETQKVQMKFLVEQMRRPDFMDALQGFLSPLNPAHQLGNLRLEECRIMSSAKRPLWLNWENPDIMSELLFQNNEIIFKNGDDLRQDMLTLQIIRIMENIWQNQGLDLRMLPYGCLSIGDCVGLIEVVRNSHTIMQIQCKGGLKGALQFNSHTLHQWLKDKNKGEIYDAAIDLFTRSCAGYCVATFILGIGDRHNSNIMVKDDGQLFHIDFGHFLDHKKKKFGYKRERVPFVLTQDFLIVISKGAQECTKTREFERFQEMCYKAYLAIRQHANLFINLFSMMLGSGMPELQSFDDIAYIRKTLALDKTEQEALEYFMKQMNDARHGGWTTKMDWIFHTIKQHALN
H1047R PIK3CA enzyme, sequence (P27986 whole entry partner): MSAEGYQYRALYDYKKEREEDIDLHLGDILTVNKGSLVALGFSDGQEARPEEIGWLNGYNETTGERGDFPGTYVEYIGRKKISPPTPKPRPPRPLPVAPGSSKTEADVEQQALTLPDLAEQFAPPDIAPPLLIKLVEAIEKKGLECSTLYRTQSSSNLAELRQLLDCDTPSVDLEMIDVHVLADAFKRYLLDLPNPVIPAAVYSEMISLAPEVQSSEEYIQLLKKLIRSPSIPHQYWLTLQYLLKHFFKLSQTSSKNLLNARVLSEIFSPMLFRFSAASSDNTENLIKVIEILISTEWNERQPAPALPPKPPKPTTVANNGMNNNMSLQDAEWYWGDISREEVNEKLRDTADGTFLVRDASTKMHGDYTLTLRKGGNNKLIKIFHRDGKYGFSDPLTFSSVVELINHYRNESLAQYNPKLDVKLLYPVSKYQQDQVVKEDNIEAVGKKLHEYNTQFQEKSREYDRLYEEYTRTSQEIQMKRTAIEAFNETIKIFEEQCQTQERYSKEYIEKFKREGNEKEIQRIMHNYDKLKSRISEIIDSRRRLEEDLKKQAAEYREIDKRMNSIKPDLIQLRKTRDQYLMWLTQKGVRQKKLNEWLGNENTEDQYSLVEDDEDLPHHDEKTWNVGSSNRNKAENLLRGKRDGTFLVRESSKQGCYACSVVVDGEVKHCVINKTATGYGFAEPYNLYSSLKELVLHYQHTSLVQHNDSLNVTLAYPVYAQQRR

Row | SMILES | IC50
1 | O=C(Nc1cc(N2CC3CNC(=O)C3C2)cc2c1C(c1cc(F)ccc1Cl)NC2=O)c1cc(F)cc(C(F)(F)F)c1 (stereo not drawn) [Compound I-1309] | ≤ 0.1 µM
2 | O=C1N[C@@H](c2cc(F)ccc2Cl)c2c(NC(=O)[C@@H]3CC[C@H](C(F)(F)F)C3)cccc21 [Compound I-2086] | 1 to 10 µM
3 | O=C1NC(c2cc(F)ccc2Cl)c2c(NC(=O)c3cccn4ccnc34)cc(Br)cc21 (stereo not drawn) [Compound I-562] | 10 to 100 µM
4 | COCc1cc(NC(=O)c2cc(F)cc(C(F)(F)F)c2)c2c(c1)C(=O)N[C@@H]2c1cc(F)ccc1Cl [Compound I-690] | 0.1 to 0.5 µM
5 | O=C(Nc1cc(-c2ccc3nccn3n2)cc2c1[C@H](c1cc(F)ccc1Cl)NC2=O)c1cc(F)cc(C(F)(F)F)c1 [Compound I-1332] | ≤ 0.1 µM
6 | CN(C)S(=O)(=O)c1cc(-c2ccc3ncnn3c2)cc2c1[C@H](c1cc(F)ccc1Cl)NC2=O [Compound I-2099] | 10 to 100 µM
7 | O=C1NC(c2cc(F)ccc2Cl)c2c(NC(=O)C(Cl)c3ccccc3)cc(-c3ccc4ncnn4c3)cc21 (stereo not drawn) [Compound I-1630] | 1 to 10 µM
8 | O=C1NC(CO)(c2cccc(F)c2)c2c1cccc2-c1nc2cc(C(F)(F)F)cc(F)c2[nH]1 (stereo not drawn) [Compound I-2296] | 1 to 10 µM
9 | O=C1NC(c2cc(F)ccc2Cl)c2c(NS(=O)(=O)c3cc(F)cc(C(F)(F)F)c3)cc(Br)cc21 (stereo not drawn) [Compound I-1352] | 10 to 100 µM
10 | O=C(Nc1cc(C(O)C(F)(F)F)cc2c1C(c1cc(F)ccc1Cl)NC2=O)c1cc(F)cc(C(F)(F)F)c1 (stereo not drawn) [Compound I-270, N-(3-(2-chloro-5-fluorophenyl)-1-oxo-6-(2,2,2-trifluoro-1-hydroxyethyl)isoindolin-4-yl)-3-fluoro-5-(trifluoromethyl)benzamide] | ≤ 0.1 µM
11 | Cn1ncc(C2NC(=O)c3cccc(NC(=O)c4nsc5ccccc45)c32)c1C(F)F (stereo not drawn) [Compound I-241] | 10 to 100 µM
12 | O=C(Nc1cc(Br)cc2c1C(c1cc(F)ccc1Cl)NC2=O)c1cc(F)cc(S(F)(F)(F)(F)F)c1 (stereo not drawn) [Compound I-774] | ≤ 0.1 µM
13 | O=C1NC(c2cc(F)ccc2Cl)c2c(NC(=O)N3CCCCC3c3ccccc3)cc(Br)cc21 (stereo not drawn) [Compound I-772] | 1 to 10 µM
14 | O=C1Nc2cccc(NC(=O)c3cc(F)cc(C(F)(F)F)c3)c2C(c2ccccc2Cl)N1 (stereo not drawn) [Compound I-1212] | 1 to 10 µM
15 | N#CC[C@@H](O)c1cc(NC(=O)c2cc(F)cc(C(F)(F)F)c2)c2c(c1)C(=O)N[C@@H]2c1cc(F)ccc1Cl (single isomer, unassigned) [Compound I-1391] | 1 to 10 µM
16 | O=C(Nc1cc(O[C@H]2CCCNC2)cc2c1C(c1cc(F)ccc1Cl)NC2=O)c1cc(F)cc(C(F)(F)F)c1 (mixture of isomers) [Compound I-1527] | 0.1 to 0.5 µM
17 | Cn1ccc2c(C(=O)Nc3cc(Br)cc4c3C(c3cc(F)ccc3Cl)NC4=O)cccc21 (stereo not drawn) [Compound I-670] | 10 to 100 µM
18 | O=C(Nc1cc(-c2ccc3nc(C(F)F)nn3c2)cc2c1[C@H](c1cc(F)ccc1Cl)NC2=O)c1cc(F)cc(C(F)(F)F)c1 [Compound I-1987] | ≤ 0.1 µM
19 | O=C(Nc1cc(Br)cc2c1C(c1cc(F)ccc1Cl)NC2=O)c1cc(F)cc2c1NC(=O)C2(F)F (stereo not drawn) [Compound I-1381] | 0.1 to 0.5 µM
20 | O=C(Nc1cccc2c1C(C1CCC(O)CC1)NC2=O)c1cc(F)cc(C(F)(F)F)c1 (stereo not drawn) [Compound I-1835] | 10 to 100 µM
21 | CNC(=O)Cc1cc(NC(=O)c2cc(F)cc(C(F)(F)F)c2)c2c(c1)C(=O)NC2c1cc(F)ccc1Cl (stereo not drawn) [Compound I-438] | ≤ 0.1 µM

Row | SMILES | IC50
22 | COc1cc(F)c(F)c(C(=O)Nc2cccc3c2C(c2ccccc2C)NC3=O)c1 (stereo not drawn) [Compound I-341] | 10 to 100 µM
23 | O=C(Nc1cc(-c2cc(F)c3ncnn3c2)cc2c1[C@@H](c1cc(F)ccc1Cl)NC2=O)c1cc(F)cc(C(F)(F)F)c1 [Compound I-1703] | 10 to 100 µM
24 | Cc1ccccc1-n1[nH]c(=O)c2cccc(NC(=O)c3nsc4ccc(F)cc34)c21 [Compound I-152] | 1 to 10 µM
25 | O=C(Nc1cccc2c1C(c1cc(Br)ccc1Cl)NC2=O)c1cc(O)cc(C(F)(F)F)c1 (stereo not drawn) [Compound I-414] | 0.1 to 0.5 µM
26 | O=C1NC(c2ccccc2Cl)c2c(NC(=O)c3coc4c(F)cc(F)cc34)ccnc21 (stereo not drawn) [Compound I-209] | 0.5 to 1 µM
27 | CS(=O)(=O)Cc1cc(NC(=O)c2cc(F)cc(Cl)c2)c2c(c1)C(=O)NC2c1cc(F)ccc1Cl (stereo not drawn) [Compound I-231] | ≤ 0.1 µM
28 | N#Cc1cnc2ncc(-c3cc(NC(=O)c4cc(F)cc(C(F)(F)F)c4)c4c(c3)C(=O)NC4c3cc(F)ccc3Cl)cn12 (stereo not drawn) [Compound I-1796] | ≤ 0.1 µM
29 | Cc1ccccc1C1NC(=O)c2cccc(NC(=O)N3CCNC(C(F)(F)F)C3)c21 (racemic) [Compound I-60] | 10 to 100 µM
30 | Cc1ccccc1C1NC(=O)c2cncc(NC(=O)c3cc(F)cc(C(F)(F)F)c3)c21 (stereo not drawn) [Compound I-233] | 0.1 to 0.5 µM
31 | CC1(COc2cc(NC(=O)c3cc(F)cc(C(F)(F)F)c3)c3c(c2)C(=O)NC3c2cc(F)ccc2Cl)COC1 (stereo not drawn) [Compound I-748] | ≤ 0.1 µM
32 | O=C(Nc1cccc2c1C(c1cc(F)ccc1Cl)NC2=O)c1csc2c1CCOC2 (stereo not drawn) [Compound I-2266] | 0.1 to 0.5 µM
33 | Cc1ccccc1[C@H]1NC(=O)c2cccc(NC(=O)c3nsc4ccccc34)c21 [Compound I-73] | 0.5 to 1 µM
34 | O=C1NC(c2cc(F)ccc2Cl)c2c(NC(=O)c3cccc4cccnc34)cc(Br)cc21 (stereo not drawn) [Compound I-602] | 1 to 10 µM
35 | Cc1ccccc1C1NC(=O)c2cc(C3(O)CC3)cc(NC(=O)c3nsc4ccccc34)c21 (stereo not drawn) [Compound I-315, N-[6-(1-hydroxycyclopropyl)-3-(2-methylphenyl)-1-oxo-2,3-dihydro-1H-isoindol-4-yl]-1,2-benzothiazole-3-carboxamide] | ≤ 0.1 µM
36 | O=C(Nc1cc(CS(=O)(=O)c2ccccc2)cc2c1[C@H](c1cc(F)ccc1Cl)NC2=O)c1cc(F)cc(C(F)(F)F)c1 [Compound I-1591] | ≤ 0.1 µM
37 | Cc1ccccc1[C@H]1NC(=O)c2cc(N)cc(NC(=O)c3nsc4ccccc34)c21 [Compound I-91] | 0.5 to 1 µM
38 | O=C1N[C@@H](c2cc(F)ccc2Cl)c2c(NC(=O)N3CCC[C@@](O)(C(F)(F)F)C3)cccc21 (single isomer, unassigned) [Compound I-2116] | 10 to 100 µM
39 | COC(=O)C1CN(C(=O)Nc2cccc3c2C(c2cc(F)ccc2Cl)NC3=O)c2ccccc21 (stereo not drawn) [Compound I-2317] | 10 to 100 µM
40 | O=C(Nc1cc(-c2ccc(=O)n(C(F)F)c2)cc2c1[C@H](c1cc(F)ccc1Cl)NC2=O)c1cc(F)cc(C(F)(F)F)c1 [Compound I-1861] | ≤ 0.1 µM
41 | O=C(Nc1cc(Br)cc2c1[C@@H](c1cc(F)ccc1Cl)NC2=O)c1cc(F)cc(C(F)(F)F)c1 [Compound I-387] | 1 to 10 µM
42 | CC(O)(c1cc(NC(=O)c2cc(F)cc(C(F)(F)F)c2)c2c(c1)C(=O)NC2c1cc(F)ccc1Cl)c1ccccn1 (stereo not drawn) [Compound I-1188] | ≤ 0.1 µM

Row | SMILES | IC50
43 | CC(C)(O)c1cc(NC(=O)c2nsc3ccccc23)c2c(n1)C(=O)NC2c1ccccc1Cl (stereo not drawn) [Compound I-250] | ≤ 0.1 µM
44 | Cn1cc(Nc2cc(NC(=O)c3cc(F)cc(C(F)(F)F)c3)c3c(c2)C(=O)N[C@@H]3c2cc(F)ccc2Cl)cn1 (single isomer, unassigned) [Compound I-998] | 0.5 to 1 µM
45 | O=C(Nc1cc(CC(O)CCO)cc2c1C(c1cc(F)ccc1Cl)NC2=O)c1cc(F)cc(C(F)(F)F)c1 (stereo not drawn) [Compound I-1463] | ≤ 0.1 µM
46 | COc1cc2ncnn2cc1-c1cc(NC(=O)c2cc(F)cc(C(F)(F)F)c2)c2c(c1)C(=O)NC2c1cc(F)ccc1Cl (stereo not drawn) [Compound I-1700] | ≤ 0.1 µM
47 | O=C(Nc1cccc2c1[C@@H](NC1CCCC1)NC2=O)c1cc(F)cc(C(F)(F)F)c1 (single isomer, unassigned) [Compound I-2249] | 10 to 100 µM
48 | O=C1NC(c2cc(F)ccc2Cl)c2c(NC(=O)C3OCCc4ccccc43)cc(-c3ccc4ncnn4c3)cc21 (stereo not drawn) [Compound I-1939] | 1 to 10 µM
49 | N#Cc1cc2nccn2cc1-c1cc(NC(=O)c2cc(F)cc(C(F)(F)F)c2)c2c(c1)C(=O)N[C@@H]2c1cc(F)ccc1Cl [Compound I-1585] | 0.5 to 1 µM
50 | Cc1ccccc1C1NC(=O)c2c(C(N)=O)ccc(NC(=O)c3cc(F)cc(C(F)(F)F)c3)c21 (stereo not drawn) [Compound I-339] | 0.1 to 0.5 µM
51 | N#CC1(COc2cc(NC(=O)N3C[C@@H](O)c4cc(F)ccc43)c3c(c2)C(=O)N[C@H]3c2cc(F)ccc2Cl)CC1 (single isomer, unassigned) [Compound I-2551] | 1 to 10 µM
52 | O=C(Nc1cccc2c1C(c1cccc(C3CC3)c1)NC2=O)c1cc(F)cc(C(F)(F)F)c1 (stereo not drawn) [Compound I-718] | 10 to 100 µM
53 | O=C1NC(c2cccnc2Cl)c2c(NC(=O)c3nsc4ccccc34)cccc21 (stereo not drawn) [Compound I-158] | 1 to 10 µM
54 | O=C(Nc1cc(-c2ccccc2S(=O)(=O)F)cc2c1C(c1cc(F)ccc1Cl)NC2=O)c1cc(F)cc(C(F)(F)F)c1 (stereo not drawn) [Compound I-1264] | ≤ 0.1 µM
55 | COc1cccc2scc(C(=O)Nc3cccc4c3C(c3ccccc3C)NC4=O)c12 (stereo not drawn) [Compound I-78] | 10 to 100 µM
56 | N#Cc1nc(-c2cc(NC(=O)c3cc(F)cc(C(F)(F)F)c3)c3c(c2)C(=O)NC3c2cc(F)ccc2Cl)cs1 (stereo not drawn) [Compound I-1311] | ≤ 0.1 µM
57 | O=C(Nc1cc(C(O)COCCO)cc2c1C(c1cc(F)ccc1Cl)NC2=O)c1cc(F)cc(C(F)(F)F)c1 (stereo not drawn) [Compound I-1134] | 0.1 to 0.5 µM
58 | Cc1ccccc1C1NC(=O)c2cccc(NC(=O)c3ncsc3Br)c21 (stereo not drawn) [Compound I-452] | 1 to 10 µM
59 | CN1C(=O)CC[C@@H]1COc1cc(NC(=O)c2cc(F)cc(C(F)(F)F)c2)c2c(c1)C(=O)N[C@H]2c1cc(F)ccc1Cl (single isomer, unassigned) [Compound I-1567] | ≤ 0.1 µM
60 | O=C1N[C@@H](c2ccccc2Cl)c2c(NC(=O)c3csc4ccccc34)ccnc21 [Compound I-32] | 1 to 10 µM
61 | Cc1ccccc1C1NC(=O)c2cccc(NC(=O)c3cc(F)cc(C(C)C)c3)c21 (stereo not drawn) [Compound I-715] | 1 to 10 µM
62 | O=C1N[C@H](c2cc(F)ccc2Cl)c2c(NC(=O)[C@H]3C[C@H]3C(F)(F)F)cc(Br)cc21 (racemic) [Compound I-1854] | 10 to 100 µM
63 | N#Cc1cc2ncnn2cc1-c1cc(NC(=O)c2cc(F)cc(C(F)(F)F)c2)c2c(c1)C(=O)N[C@@H]2c1cc(F)ccc1Cl [Compound I-1645] | 1 to 10 µM

Source: patent publication US12581252B2, “Substituted pyrrolo[3,4-b]pyridines as PI3K-α inhibitors” (Relay Therapeutics, Inc., priority 2020, dated 2026)
